Assays:
A2058 (BRAF mutation) = test: MTT cell viability assay, A2058 melanoma; format: cell-based, human; settings: Homo sapiens, A2058, 24 h
Outline: (§1)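 Cells (2×10^3 to 1×10^4/well) seeded overnight, then exposed to compounds for 24 h to 72 h. Growth read by MTT colorimetry at OD570. Viability expressed as % of vehicle (0.5% DMSO) control.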

[1] = test system: Melanocyte (Normal cells); test: MTT cell viability assay, normal melanocytes; format: cell-based, human; settings: Homo sapiens, Melanocyte, 24 h
Outline: as §1

[2] = test system: TS/A (ER+, Her2−) murine mammary cancer cells; test: MTT cell viability assay, TS/A cells; format: cell-based; settings: Mus musculus, 24 h, read-out: IC50 on cell viability, TS/A (ER+, Her2−)
Outline: (§2)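 Cells were seeded at 2×10^3 to 1×10^4 per well overnight, then exposed to compounds for 24 h to 72 h. Viability was read by MTT at OD570 as a percentage of the 0.5% DMSO vehicle control.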

[3] = test system: LPS-induced nitric oxide (NO) production in RAW 264.7 cells; test: Nitric oxide production in LPS-stimulated macrophages (Griess); format: cell-based, mouse; settings: Mus musculus; LPS-stimulated RAW264.7, nitrite 24 h after LPS
Outline: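 RAW 264.7 macrophages (2×10^5 cells/well) were pretreated with compound for 1 h and then stimulated with 100 ng/μL LPS for 24 h. NO was measured as nitrite in the medium by the Griess reaction. Viability was checked in parallel by MTT.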

[4] = test system: M10 normal mammary epithelial cells; test: MTT cell viability assay, M10 normal cells; format: cell-based, human; settings: Homo sapiens, Epithelial cell, 24 h
Outline: as §2

[5] = test system: MeWo (No NRAS or BRAF mutation); test: MTT cell viability assay, MeWo melanoma; format: cell-based, human; settings: Homo sapiens, MeWo, 24 h
Outline: as §1

[6] = test system: MCF-7 (ER+, Her2−) human breast cancer cells; test: MTT cell viability assay, MCF-7 cells; format: cell-based; settings: MCF7, 24 h, read-out: IC50 on cell viability, MCF-7 (ER+, Her2−)
Outline: as §2

[7] = test system: RAW264.7 (normal macrophage); test: MTT cell viability assay, RAW264.7 macrophages; format: cell-based, mouse; settings: Mus musculus, RAW264.7, 24 h
Outline: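 RAW264.7 macrophages (2×10^5 cells/well) pretreated with compounds 1 h, then incubated 24 h with or without 100 ng/μL LPS. Viability by MTT colorimetric assay run in parallel with Griess nitrite measurement.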

A375 (BRAF mutation) = test: MTT cell viability assay, A375 melanoma; format: cell-based, human; settings: Homo sapiens, A-375, 24 h, 24 h, MTT; read-out: IC50 on cell viability, A375 (BRAF mutation)
Outline: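 A375 cells were seeded at 2×10^3 to 1×10^4 per well overnight and then exposed to compounds for 24 h to 72 h. Viability was measured by MTT absorbance at OD570 relative to 0.5% DMSO vehicle (100%), and IC50 was derived from it. Combination with PLX4032 was scored by combination index.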

HTB-68 (NRAS mutation) = test: MTT cell viability assay, HTB-68 melanoma; format: cell-based, human; settings: Homo sapiens, 24 h
Outline: as §1

B16-F10 (NRAS mutation) = test: MTT cell viability assay, B16-F10 melanoma; format: cell-based; settings: Mus musculus, B16-F10, 24 h, 24 h, read-out: IC50 on cell viability, B16-F10 (NRAS mutation)
Outline: as §1

[8] = test system: melanoma cell lines B16-F10, MeWo, A375, A2058, HTB-68; test: MTT cell viability assay, all melanoma cell lines; format: cell-based; settings: 24 h, read-out: IC50 values over all types of melanoma cell lines
Procedure: Normal or cancer cells (2×10^3 to 1×10^4 cells/well) were seeded in 96-well plate for overnight and treated with different compounds for 24 h to 72 h. Cells growth were determined by MTT-based colorimetric assays according to. Viability of the test cells treated with vehicle (0.5% DMSO) only was defined as 100% viable. Survival of cells after treatment with DETDs was calculated using the following formula: viable cell number (%)=OD570 (treated cell culture)/OD570 (vehicle control)×100.
Several genes are involved in melanoma development and pathology; specifically, mutation in V-raf murine sarcoma viral oncogene homolog B1 (B-RAF) occurs approximately 50-60% and in neuroblastoma RAS viral oncogene homolog (N-RAS) occurs about 30% of malignant melanomas. A spectrum of wild-type or mutated melanoma cell lines including B16-F10, MeWo, A375, A2058, HTB-68, and melanocyte were used to study anti-melanoma cell proliferation activity of parental phytocompound DET and newly synthesized DETDs.

[9] = test system: MDA-MB-231 (ER−, PR−, Her2−) human breast cancer cells; test: MTT cell viability assay, MDA-MB-231 cells; format: cell-based; settings: Homo sapiens, MDA-MB-231, 24 h, read-out: IC50 on cell viability, MDA-MB-231 (ER−, PR−, Her2−)
Outline: as §2

Compound | IC50 (A2058 (BRAF mutation)) [µM] | IC50 [2] [µM] | IC50 [3] [µM] | IC50 [5] [µM] | IC50 [6] [µM] | IC50 (A375 (BRAF mutation)) [µM] | IC50 (HTB-68 (NRAS mutation)) [µM] | IC50 (B16-F10 (NRAS mutation)) [µM] | IC50 [8] [µM] | IC50 [9] [µM] | IC50 [1] [µM] | IC50 [4] [µM] | IC50 [7] [µM]
C=C1C(=O)OC2CC3=C[C@@H](C/C(C)=C/[C@@H](OC(=O)/C=C/c4ccc5c(c4)OCO5)[C@H]12)OC3=O (stereo partly drawn) [DETD-61] | 5.2 | 2.5 | 3.1 | 6.6 | 3.6 | 2.6 | 5.5 | 6 | 1.6 to 9.9 | 3.4 | > 10 | 4.7 | > 10
C=C1C(=O)OC2CC3=C[C@@H](C/C(C)=C/[C@@H](OC(=O)C(C)(OC)c4ccc5ccccc5c4)[C@H]12)OC3=O (stereo partly drawn) [DETD-55] | 6.1 | 2.8 | 2.9 | 9 | > 7.5 | 2.6 | 5.3 | 4.8 | 1.6 to 9.9 | 4.1 | > 10 | > 7.5 | > 10
C=C1C(=O)OC2CC3=C[C@@H](C/C(C)=C/C(OC(=O)[C@H](C)c4ccc5cc(OC)ccc5c4)[C@H]12)OC3=O (stereo partly drawn) [DETD-54] | 6.6 | 3.1 | > 10 | 7.9 | > 7.5 | 3.4 | 7 | 6.6 | 1.6 to 9.9 | 4.9 | > 10 | > 7.5 | > 10
C=C1C(=O)OC2CC3=C[C@@H](C/C(C)=C/[C@@H](OC(=O)Cc4csc5ccccc45)[C@H]12)OC3=O (stereo partly drawn) [DETD-58] | 5 | 2.1 | 3.6 | 8.3 | 3.8 | 2.1 | 3.8 | 5.6 | 1.6 to 9.9 | 3.8 | > 10 | 5.8 | > 10
C=C1C(=O)OC2CC3=C[C@@H](C/C(C)=C/[C@@H](OC(=O)[C@@H](OC)c4ccc5ccccc5c4)[C@H]12)OC3=O (stereo partly drawn) [DETD-56] | 5.2 | 1.9 | 3 | 7.6 | 4.5 | 2.5 | 4.5 | 5.3 | 1.6 to 9.9 | 4.2 | > 10 | > 7.5 | > 10

Compounds with a lower IC50 (A2058 (BRAF mutation)), results first:

IC50 (A2058 (BRAF mutation)) [µM] | IC50 [2] [µM] | IC50 [3] [µM] | IC50 [5] [µM] | IC50 [6] [µM] | IC50 (A375 (BRAF mutation)) [µM] | IC50 (HTB-68 (NRAS mutation)) [µM] | IC50 (B16-F10 (NRAS mutation)) [µM] | IC50 [8] [µM] | IC50 [9] [µM] | Compound | IC50 [1] [µM] | IC50 [4] [µM] | IC50 [7] [µM]
4.2 | 1.8 | 1.9 | 6.7 | 2.7 | 2.9 | 5.9 | 2.2 | 1.6 to 9.9 | 4.2 | C=C1C(=O)OC2CC3=C[C@@H](C/C(C)=C/C(OC(=O)c4ccc(C)cc4)[C@H]12)OC3=O (stereo partly drawn) [DETD-33] | > 10 | > 7.5 | > 10
4.4 | 1.8 | 2.1 | 6.7 | 3.6 | 3 | 6.1 | 3.9 | 1.6 to 9.9 | 4.2 | C=C1C(=O)OC2CC3=C[C@@H](C/C(C)=C/C(OC(=O)/C=C/c4ccc(Cl)cc4)[C@H]12)OC3=O (stereo partly drawn) [DETD-28] | > 10 | 4.8 | > 10
3.6 | 2 | 2.8 | 4.5 | 3.1 | 1.7 | 3.5 | 4.5 | 1.6 to 9.9 | 3.1 | C=C1C(=O)OC2CC3=C[C@@H](C/C(C)=C/C(OC(=O)Cc4cccc5cc(OC)ccc45)[C@H]12)OC3=O (stereo partly drawn) [DETD-45] | > 10 | 4.7 | > 10
4.4 | 3 | 2.3 | 7.3 | 6.1 | 3.1 | 6.8 | 2 | 1.6 to 9.9 | 2.2 | C=C1C(=O)OC2CC3=C[C@@H](C/C(C)=C/C(OC(=O)c4ccc(Br)cc4)[C@H]12)OC3=O (stereo partly drawn) [DETD-34] | > 10 | > 7.5 | > 10

From patent US10238631B2, “Sesquiterpene derivatives and their use in inflammation or cancer treatment” (Academia Sinica, priority 2014, dated 2019)
